Source: patent publication US10233146B2, “Acetylenic cyanoenones as therapeutics for inflammation and carcinogenesis” (THE RESEARCH FOUNDATION FOR THE STATE UNIVERSITY OF NEW YORK, priority 2015, dated 2019)
Where “and” joins values, the source holds several entries; their conditions need not be identical. Identical values can stand only once. Entries after “also recorded” stand apart in the source; their conditions may differ. Like-named read-outs stand apart in the source and are kept apart here.

Columns and labels:
[1] = UV study of Michael adduct formation with DTT; type: physicochemical; details: for A (absorbance) With DTT (1 equiv) / λmax With DTT (1 equiv) / A (absorbance) With DTT (10 equiv) / λmax With DTT (10 equiv): 0.1 mM compound, phosphate buffer saline-1% ethanol (pH 7.4), rt; for A (absorbance) With DTT (1 equiv) / λmax With DTT (1 equiv): 0.1 mM DTT; for A (absorbance) With DTT (10 equiv) / λmax With DTT (10 equiv): 1 mM DTT; for K (equilibrium constant): 0.1 mM of compound with 0.1 mM of DTT
Description: Calculation of Approximate Equilibrium Constant (K)
The concentrations of 3, with initial concentration of 0.1 mM, and DTT, with initial concentration of 0.1 mM, in the phosphate buffer are calculated to be 0.0855 mM as follows: (1) The absorbance (A) is 0.956 at 0.1 mM concentration of 3 in deionized water. (2) The A of 3 is 0.817 in the phosphate buffer. (3) The concentrations of 3 and DTT in the buffer are calculated to be 0.0855 mM based on (1) and (2). From these concentrations, the approximate K is calculated as follows: K=[Adduct]/[3]×[DTT]=0.0145×10^−3/[…]=2.0×10^3 (Liters/mol).
Unfortunately, since the λmax of 4-8 was not observed due to the overlapping, we can't calculate the concentrations of the adducts of 4-8 by the same method as for 3. However, since we can speculate that the ε of the adducts of 4-8 is almost similar to that of the adduct of 2, we can calculate the concentrations of the adducts of 4-8 based on the A (0.227 at 0.0145 mM) of the adduct of […] and the A of the adducts of 4-8. For example, the concentration of the adduct of 5 is 0.0145×0.369 (A of the adduct of 5)/0.227=0.0235 (mM). Therefore, the concentrations of 5 and DTT are 0.0765 (mM/each). Thus, K of 5=0.0235×10^−3/0.0765×0.0765×10^−6=4.0×10^3 (Liters/mol). The K of 4 and 6-8 are also calculated using the A (0.227 at 0.0145 mM) of the adduct of 3 and the A of the adducts of 4 and 6-8, respectively.
Chemical reactivity of monocyclic, bicyclic, and tricyclic compounds 4-15 as Michael acceptors was evaluated using UV spectroscopy.
Michael reaction between ethynylcyanodienones with DTT give adducts IV (Scheme 11). Since adducts IV have different UV absorption spectra (λmax 330-380 nm) from those of the corresponding ethynylcyanodienones (λmax 230-320 nm), UV spectroscopy can clarify whether or not the Michael adducts are produced.^6
(§1) 1. UV Studies on Monocyclic and Bicyclic Compounds 4-9 with DTT Compounds 5-8 with DTT gave similar UV spectra to those of 3 (Taylor, S. K. et al. 1988). Compounds 5-8 have local maximum absorptions at 332-338 nm upon the addition of DTT (1 and 10 equiv) under dilute (0.1 mM of the compounds) and neutral aqueous conditions (pH 7.4 phosphate buffered saline-1% ethanol containing 1 mM KH2PO4, 5.6 mM Na2HPO4, and 154 mM NaCl) (Table 1 and FIG. 2). Also, these compounds react with a chloride anion (a much weaker nucleophile than a sulfhydryl group of DTT), which is contained in the buffer solution, to give Michael adducts whose local maximum absorptions are observed at 320-326 nm.
We have calculated approximate equilibrium constants (K) of these Michael reactions in the solutions of 5-8 with DTT (each initial concentration, 0.1 mM. See the calculation of the equilibrium constants in the Supporting Information). The values of K are approximately 1.0-4.2×10^3 (L/mol), implying that these additions are very strongly favored.
Tricyclic compounds 10-15 react with DTT to give the adducts whose local maximum absorptions are observed at 374-383 nm range (Table 1 and FIG. 2). […] Among phenanthrene derivatives, substitutents at C5 decrease the reactivity.

[2] = UV study of Michael adduct formation with chloride anion of the buffer (without DTT); type: physicochemical; details: 0.1 mM compound, phosphate buffer saline-1% ethanol (pH 7.4)
Description: as §1, with “nm. […]” for “nm.”

NQO1 = test: Induction of NQO1 in Hepa1c1c7 murine hepatoma cells; type: cell-based; details: for EC (2-fold NQO1 activity): Hepa1c1c7 cells, 48 h treatment, read-out: NQO1 CD (concentration required to double the specific enzyme activity of NQO1); for magnitude of NQO1 induction at higher concentrations: FIG. 3, concentrations higher than the CD values
Excerpt: In this assay, the concentration required to double (CD value) the specific enzyme activity of NQO1 is used to quantify inducer potency. […] Dinkova-KOstova, A. T. et al. 2012). […] These compounds may be more robust inducers than monocyclic compounds. [table]

Compound | A (absorbance) With DTT (1 equiv) [1] | λmax With DTT (1 equiv) [1] | A (absorbance) With DTT (10 equiv) [1] | λmax With DTT (10 equiv) [1] | K (equilibrium constant) [1] | approximate equilibrium constant K of Michael reaction with DTT ([1]; each initial concentration 0.1 mM) | A (absorbance) Without DTT (With Cl^—) [2] | λmax Without DTT (With Cl^—) [2] | EC (2-fold NQO1 activity) (NQO1; Mus musculus, Hepa-1c1c7) | melting point | IC50 (iNOS) | magnitude of NQO1 induction at higher concentrations (NQO1) | approximate equilibrium constant K (calculation) ([1]; initial 0.1 mM compound and 0.1 mM DTT, phosphate buffer) | EC (2-fold NQO1 activity) (NQO1)
C#CC1(C#C)C=CC(=O)C(C#N)=C1 [Compound 4, 3,3-Diethynyl-6-oxocyclohexa-1,4-dienecarbonitrile] | 0.614 | 330 nm | 0.510 and 0.439 | 333 nm and 250 nm | 10600 L/mol | ~10600 L/mol | 0.635 | 328 nm | 0.18 µM | 110 to 111 °C | 210 nM |  |  | 
C#CC1(C)C=C(C#N)C(=O)c2ccccc21 (stereo not shown) [Compound 9, 4-Ethynyl-4-methyl-1-oxo-1,4-dihydronaphthalene-2-carbonitrile] | 0.848 | 331 nm | 0.872 | 333 nm |  |  | 0.831 | 321 nm | 0.22 µM |  |  |  |  | 
C#CC12C=C(C#N)C(=O)C=C1c1ccccc1CC2 (stereo not shown) [Compound 10, 10a-Ethynyl-3-oxo-3,9,10,10a-tetrahydrophenanthrene-2-carbonitrile] | shoulder | 380 nm | 0.723 | 382 nm |  |  |  |  | 0.15 µM | 209.5 to 211 °C |  | induce NQO1 more effectively than monocyclic compounds 3-6 |  | 
C#CC12C=C(C#N)C(=O)C=C1CCC2 (stereo not shown) [Compound 7, 3a-Ethynyl-6-oxo-2,3,3a,6-tetrahydro-1H-indene-5-carbonitrile] | 0.281 | 333 nm | 0.355 | 337 nm | 2700 L/mol |  | 0.151 | 324 nm | 0.056 µM | 107 to 108 °C | 160 nM | induce NQO1 more effectively than monocyclic compounds 3-6 |  | 
C[S+]([O-])CCCCN=C=S (stereo not shown) [Sulforaphane, reference compound] |  |  |  |  |  |  |  |  | 0.2 µM |  | 400 nM |  |  | 
C#CC12C=C(C#N)C(=O)C=C1c1c(Br)cccc1CC2 (stereo not shown) [Compound 12, 5-Bromo-10a-ethynyl-3-oxo-3,9,10,10a-tetrahydrophenanthrene-2-carbonitrile] |  |  |  |  |  |  |  |  | 1.3 µM | 202 to 205 °C | 650 nM |  |  | 
C#CC1(C=C)C=CC(=O)C(C#N)=C1 (stereo not shown) [Compound 5, 3-Ethynyl-6-oxo-3-vinylcyclohexa-1,4-dienecarbonitrile] | 0.369 | 335 nm | 0.481 | 338 nm | 4000 L/mol |  | 0.197 | 326 nm | 0.02 µM | 76 to 77 °C | 16 nM |  | 4000 L/mol | 
C#CC12C=C(C#N)C(=O)C=C1c1c(Cl)cccc1CC2 (stereo not shown) [Compound 11, 5-Chloro-10a-ethynyl-3-oxo-3,9,10,10a-tetrahydrophenanthrene-2-carbonitrile] | shoulder | 380 nm | 0.262 | 380 nm |  |  |  |  | 0.9 µM | > 230 °C |  | induce NQO1 more effectively than monocyclic compounds 3-6 |  | 
C#CC12C=C(C#N)C(=O)C=C1c1c(Cl)cccc1C2 (stereo not shown) [Compound 15, 5-Chloro-9a-ethynyl-3-oxo-9,9a-dihydro-3H-fluorene-2-carbonitrile] | 0.819 | 378 nm | 0.803 | 383 nm |  |  | 1.025 | 369 nm | 0.13 µM | 191 to 193 °C | 800 nM |  |  | 
C#CC12C=C(C#N)C(=O)C=C1c1c(C)cccc1CC2 (stereo not shown) [Compound 13, 10a-Ethynyl-5-methyl-3-oxo-3,9,10,10a-tetrahydrophenanthrene-2-carbonitrile] |  |  | 0.279 | 374 nm |  |  |  |  | 1.8 µM | 195.5 to 197 °C | 940 nM |  |  | 
CC1(C)CC[C@]2(C(=O)O)CC[C@]3(C)[C@H](C(=O)C=C4[C@@]5(C)C=C(C#N)C(=O)C(C)(C)[C@@H]5CC[C@]43C)[C@@H]2C1 [CDDO, reference compound] |  |  |  |  |  |  |  |  |  |  | 23 nM |  |  | 0.0023 µM
C#CC12C=C(C#N)C(=O)C=C1C(C)(C)CC2 (stereo not shown) [Compound 8, 3a-Ethynyl-1,1-dimethyl-6-oxo-2,3,3a,6-tetrahydro-1H-indene-5-carbonitrile] | 0.376 | 333 nm | 0.472 | 337 nm | 4200 L/mol |  | 0.279 | 324 nm | 0.1 µM |  | 200 nM |  |  | 
C#CC1(CC)C=CC(=O)C(C#N)=C1 (stereo not shown) [Compound 6, 3-Ethyl-3-ethynyl-6-oxocyclohexa-1,4-dienecarbonitrile] | 0.135 | 332 nm | 0.353 | 335 nm | 1000 L/mol |  | 0.036 | 320 nm | 0.042 µM | 73 to 75 °C |  |  |  | 
C#CC12C=C(C#N)C(=O)C=C1c1ccccc1C2 (stereo not shown) [Compound 14, 9a-Ethynyl-3-oxo-9,9a-dihydro-3H-fluorene-2-carbonitrile] | 0.808 | 377 nm | 0.820 | 382 nm |  |  | 0.867 | 364 nm | 0.041 µM | 202 to 203 °C | 480 nM | induce NQO1 more effectively than monocyclic compounds 3-6; also recorded: induces NQO1 to a greater magnitude than 3 and 5 |  | 
